# Read-outs that look alike come from different tables or passages of the source.
# Key:
# Experiment in all cases: biochemical
# Assay type in all cases: binding
# [1] = molecular target: panel of 468 diverse kinases (Homo sapiens, UniProt Q07912); conditions: TNK2; 1000 nM; read-out: Percent Control
# [2] = molecular target: panel of 468 diverse kinases (Homo sapiens, UniProt Q96L34); conditions: MARK4; 1000 nM; read-out: Percent Control
# [3] = molecular target: panel of 468 diverse kinases (Homo sapiens, UniProt Q9UEE5); conditions: DRAK1; 1000 nM; read-out: Percent Control
# [4] = molecular target: panel of 468 diverse kinases (Homo sapiens, UniProt Q8NI60); conditions: ADCK3; 1000 nM; read-out: Percent Control
# panel of 468 diverse kinases (Homo sapiens, UniProt Q8NI60), sequence (Q8NI60 163-647 limits assumed): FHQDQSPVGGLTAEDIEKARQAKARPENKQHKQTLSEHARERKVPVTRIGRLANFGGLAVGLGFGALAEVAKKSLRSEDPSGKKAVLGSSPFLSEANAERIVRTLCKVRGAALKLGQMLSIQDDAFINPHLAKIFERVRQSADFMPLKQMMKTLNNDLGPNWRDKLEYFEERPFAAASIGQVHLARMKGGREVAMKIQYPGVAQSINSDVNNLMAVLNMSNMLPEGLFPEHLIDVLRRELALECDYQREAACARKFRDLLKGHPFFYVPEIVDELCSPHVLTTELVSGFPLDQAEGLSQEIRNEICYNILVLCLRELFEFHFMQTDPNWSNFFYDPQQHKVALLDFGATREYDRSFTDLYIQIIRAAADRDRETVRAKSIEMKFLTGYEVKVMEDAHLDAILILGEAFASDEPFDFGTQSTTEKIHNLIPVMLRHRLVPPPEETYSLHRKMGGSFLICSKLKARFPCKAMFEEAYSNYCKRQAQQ
# [5] = molecular target: panel of 468 diverse kinases (Homo sapiens, UniProt Q13043); conditions: MST1; 1000 nM; read-out: Percent Control
# [6] = molecular target: panel of 468 diverse kinases (Homo sapiens, UniProt Q86Y07); conditions: VRK2; 1000 nM; read-out: Percent Control
# [7] = molecular target: panel of 468 diverse kinases (Homo sapiens, UniProt P35968); conditions: VEGFR2; 1000 nM; read-out: Percent Control
# [8] = molecular target: panel of 468 diverse kinases (Homo sapiens, UniProt Q9UPZ9); conditions: ICK; 1000 nM; read-out: Percent Control
# [9] = molecular target: panel of 468 diverse kinases (Homo sapiens, UniProt P80192); conditions: MLK1; 1000 nM; read-out: Percent Control
# [10] = molecular target: panel of 468 diverse kinases (Homo sapiens, UniProt O76039); conditions: CDKL5; 1000 nM; read-out: Percent Control
# [11] = molecular target: panel of 468 diverse kinases (Homo sapiens, UniProt P49760); conditions: CLK2; 1000 nM; read-out: Percent Control
# [12] = molecular target: panel of 468 diverse kinases (Homo sapiens, UniProt Q6DT37); conditions: DMPK2; 1000 nM; read-out: Percent Control
# [13] = molecular target: panel of 468 diverse kinases (Homo sapiens, UniProt O95747); conditions: OSR1; 1000 nM; read-out: Percent Control
# panel of 468 diverse kinases (Homo sapiens, UniProt O95747), sequence (O95747 2-527 limits assumed): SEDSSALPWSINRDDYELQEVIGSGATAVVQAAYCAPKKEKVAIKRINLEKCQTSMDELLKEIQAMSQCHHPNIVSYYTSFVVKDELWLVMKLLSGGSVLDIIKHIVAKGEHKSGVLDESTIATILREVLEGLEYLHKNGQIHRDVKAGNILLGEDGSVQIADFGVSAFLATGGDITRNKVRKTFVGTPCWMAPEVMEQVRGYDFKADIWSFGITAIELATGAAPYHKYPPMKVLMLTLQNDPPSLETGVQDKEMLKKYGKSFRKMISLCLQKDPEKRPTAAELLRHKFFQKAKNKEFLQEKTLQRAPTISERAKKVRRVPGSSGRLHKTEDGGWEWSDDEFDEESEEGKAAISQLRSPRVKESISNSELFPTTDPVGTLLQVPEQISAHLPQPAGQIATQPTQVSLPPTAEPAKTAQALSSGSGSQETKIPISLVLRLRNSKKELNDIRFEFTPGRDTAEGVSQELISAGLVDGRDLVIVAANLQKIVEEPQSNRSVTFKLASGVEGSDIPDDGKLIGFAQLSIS
# [14] = molecular target: panel of 468 diverse kinases (Homo sapiens, UniProt Q99759); conditions: MAP3K3; 1000 nM; read-out: Percent Control
# [15] = molecular target: panel of 468 diverse kinases (Homo sapiens, UniProt Q9UBF8); conditions: PIK4CB; 1000 nM; read-out: Percent Control
# panel of 468 diverse kinases (Homo sapiens, UniProt Q9UBF8), sequence (Q9UBF8 2-816 limits assumed): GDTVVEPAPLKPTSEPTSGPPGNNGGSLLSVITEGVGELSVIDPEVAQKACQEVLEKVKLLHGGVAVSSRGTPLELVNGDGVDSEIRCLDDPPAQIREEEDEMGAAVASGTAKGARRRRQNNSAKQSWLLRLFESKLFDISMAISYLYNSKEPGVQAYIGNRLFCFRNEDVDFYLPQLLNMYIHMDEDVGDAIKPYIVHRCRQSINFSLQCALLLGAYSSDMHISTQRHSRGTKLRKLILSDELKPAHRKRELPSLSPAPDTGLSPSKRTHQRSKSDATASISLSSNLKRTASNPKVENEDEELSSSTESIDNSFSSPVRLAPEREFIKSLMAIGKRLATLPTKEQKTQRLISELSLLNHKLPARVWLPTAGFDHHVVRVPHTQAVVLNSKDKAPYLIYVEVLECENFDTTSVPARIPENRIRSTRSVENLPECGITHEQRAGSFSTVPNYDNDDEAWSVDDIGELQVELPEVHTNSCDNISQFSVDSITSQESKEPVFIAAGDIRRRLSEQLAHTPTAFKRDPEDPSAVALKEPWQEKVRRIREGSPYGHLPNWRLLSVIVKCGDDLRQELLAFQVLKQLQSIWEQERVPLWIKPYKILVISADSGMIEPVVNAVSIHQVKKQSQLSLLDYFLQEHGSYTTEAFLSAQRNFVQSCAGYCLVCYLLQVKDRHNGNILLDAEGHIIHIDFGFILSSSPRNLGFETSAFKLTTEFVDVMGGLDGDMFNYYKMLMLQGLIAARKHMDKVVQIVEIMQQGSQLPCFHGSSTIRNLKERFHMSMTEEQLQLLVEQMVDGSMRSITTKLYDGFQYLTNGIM
# [16] = molecular target: panel of 468 diverse kinases (Homo sapiens, UniProt P35626); conditions: GRK3; 1000 nM; read-out: Percent Control
# [17] = molecular target: panel of 468 diverse kinases (Homo sapiens, UniProt O00329); conditions: PIK3CD; 1000 nM; read-out: Percent Control
# [18] = molecular target: panel of 468 diverse kinases (Homo sapiens, UniProt P19784); conditions: CSNK2A2; 1000 nM; read-out: Percent Control
# [19] = molecular target: panel of 468 diverse kinases (Homo sapiens, UniProt Q14004); conditions: read-out: Percent Control
# [20] = molecular target: panel of 468 diverse kinases (Homo sapiens, UniProt P00519, F317L); conditions: 1000 nM, read-out: Percent Control
# [21] = molecular target: panel of 468 diverse kinases (Homo sapiens, UniProt Q15375); conditions: EPHA7; 1000 nM; read-out: Percent Control
# panel of 468 diverse kinases (Homo sapiens, UniProt Q15375), sequence (Q15375 28-998 limits assumed): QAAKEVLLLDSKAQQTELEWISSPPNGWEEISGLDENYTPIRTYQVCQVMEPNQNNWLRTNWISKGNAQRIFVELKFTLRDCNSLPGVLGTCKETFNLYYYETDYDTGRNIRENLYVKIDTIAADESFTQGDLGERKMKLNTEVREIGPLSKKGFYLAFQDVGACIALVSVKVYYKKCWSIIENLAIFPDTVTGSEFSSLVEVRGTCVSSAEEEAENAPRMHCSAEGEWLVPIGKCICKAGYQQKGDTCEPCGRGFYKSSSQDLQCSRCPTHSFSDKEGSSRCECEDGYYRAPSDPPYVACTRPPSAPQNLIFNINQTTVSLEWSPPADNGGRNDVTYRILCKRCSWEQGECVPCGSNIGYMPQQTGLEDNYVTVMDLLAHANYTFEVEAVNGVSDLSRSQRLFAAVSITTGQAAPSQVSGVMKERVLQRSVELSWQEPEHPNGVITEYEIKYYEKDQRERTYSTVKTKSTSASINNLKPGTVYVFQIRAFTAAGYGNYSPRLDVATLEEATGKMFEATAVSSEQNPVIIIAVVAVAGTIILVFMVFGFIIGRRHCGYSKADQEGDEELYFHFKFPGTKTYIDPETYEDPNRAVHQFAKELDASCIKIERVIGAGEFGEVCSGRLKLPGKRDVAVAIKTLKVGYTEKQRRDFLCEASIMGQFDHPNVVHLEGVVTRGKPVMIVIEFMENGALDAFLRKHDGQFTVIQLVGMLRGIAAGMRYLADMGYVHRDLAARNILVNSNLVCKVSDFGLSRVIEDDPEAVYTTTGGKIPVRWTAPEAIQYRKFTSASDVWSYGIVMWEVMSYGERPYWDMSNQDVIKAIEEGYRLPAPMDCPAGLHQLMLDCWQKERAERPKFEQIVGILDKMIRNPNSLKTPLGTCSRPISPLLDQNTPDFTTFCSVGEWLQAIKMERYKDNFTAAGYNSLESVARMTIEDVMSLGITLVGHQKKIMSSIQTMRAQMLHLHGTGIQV
# [22] = molecular target: panel of 468 diverse kinases (Homo sapiens, UniProt Q15835); conditions: GRK1; 1000 nM; read-out: Percent Control
# [23] = molecular target: panel of 468 diverse kinases (Homo sapiens, UniProt P19525); conditions: PRKR; 1000 nM; read-out: Percent Control
# panel of 468 diverse kinases (Homo sapiens, UniProt P19525), sequence (P19525 2-551 limits assumed): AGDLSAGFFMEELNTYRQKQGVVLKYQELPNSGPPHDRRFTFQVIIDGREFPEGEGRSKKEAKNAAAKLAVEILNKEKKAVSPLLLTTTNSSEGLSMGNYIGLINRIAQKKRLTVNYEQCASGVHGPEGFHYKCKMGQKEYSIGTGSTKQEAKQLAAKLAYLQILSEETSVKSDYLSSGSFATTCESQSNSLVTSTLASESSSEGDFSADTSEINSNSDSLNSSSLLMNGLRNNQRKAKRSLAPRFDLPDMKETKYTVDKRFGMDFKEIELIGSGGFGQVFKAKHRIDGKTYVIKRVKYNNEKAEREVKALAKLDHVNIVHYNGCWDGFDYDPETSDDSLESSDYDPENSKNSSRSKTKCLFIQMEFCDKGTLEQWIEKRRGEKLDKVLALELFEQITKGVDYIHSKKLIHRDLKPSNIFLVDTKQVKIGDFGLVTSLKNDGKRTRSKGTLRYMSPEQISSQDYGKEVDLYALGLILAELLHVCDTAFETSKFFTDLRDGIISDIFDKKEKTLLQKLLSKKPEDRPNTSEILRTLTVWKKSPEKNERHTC
# [24] = molecular target: panel of 468 diverse kinases (Homo sapiens, UniProt Q8N568); conditions: DCAMKL2; 1000 nM; read-out: Percent Control
# [25] = molecular target: panel of 468 diverse kinases (Homo sapiens, UniProt P27448); conditions: MARK3; 1000 nM; read-out: Percent Control
# [26] = molecular target: panel of 468 diverse kinases (Homo sapiens, UniProt O95835); conditions: LATS1; 1000 nM; read-out: Percent Control
# [27] = molecular target: panel of 468 diverse kinases (Homo sapiens, UniProt P10721, V559D/V654A); conditions: KIT(V559D,V654A); 1000 nM; read-out: Percent Control
# panel of 468 diverse kinases (Homo sapiens, UniProt P10721, V559D/V654A), sequence (P10721 26-976 V559D/V654A limits assumed): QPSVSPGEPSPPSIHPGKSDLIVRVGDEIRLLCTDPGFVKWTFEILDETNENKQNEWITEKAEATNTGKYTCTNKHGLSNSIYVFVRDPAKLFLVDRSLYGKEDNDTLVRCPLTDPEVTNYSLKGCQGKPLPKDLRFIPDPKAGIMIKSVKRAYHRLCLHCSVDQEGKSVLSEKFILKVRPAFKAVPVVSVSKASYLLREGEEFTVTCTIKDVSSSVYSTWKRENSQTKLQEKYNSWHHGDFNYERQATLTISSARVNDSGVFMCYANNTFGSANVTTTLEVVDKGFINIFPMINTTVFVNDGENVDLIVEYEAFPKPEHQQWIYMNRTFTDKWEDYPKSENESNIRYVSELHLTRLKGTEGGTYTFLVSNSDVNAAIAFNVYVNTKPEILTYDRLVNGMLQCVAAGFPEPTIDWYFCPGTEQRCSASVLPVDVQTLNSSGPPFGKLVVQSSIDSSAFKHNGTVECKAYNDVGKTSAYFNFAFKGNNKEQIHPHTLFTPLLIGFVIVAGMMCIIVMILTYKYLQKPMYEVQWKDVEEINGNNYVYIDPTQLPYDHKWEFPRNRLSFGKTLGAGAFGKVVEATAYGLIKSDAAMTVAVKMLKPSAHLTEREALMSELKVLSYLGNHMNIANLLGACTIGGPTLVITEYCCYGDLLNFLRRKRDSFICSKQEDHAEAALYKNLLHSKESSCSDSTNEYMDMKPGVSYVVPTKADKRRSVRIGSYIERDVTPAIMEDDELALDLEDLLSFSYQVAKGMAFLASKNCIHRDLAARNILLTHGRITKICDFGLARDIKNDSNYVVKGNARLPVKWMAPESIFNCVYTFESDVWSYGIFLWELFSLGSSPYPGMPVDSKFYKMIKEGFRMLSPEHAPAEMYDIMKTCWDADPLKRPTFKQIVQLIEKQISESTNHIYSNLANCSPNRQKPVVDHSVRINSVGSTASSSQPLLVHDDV
# [28] = molecular target: panel of 468 diverse kinases (Homo sapiens, UniProt Q9Y5S2); conditions: MRCKB; 1000 nM; read-out: Percent Control
# [29] = molecular target: panel of 468 diverse kinases (Homo sapiens, UniProt Q9Y2K2); conditions: QSK; 1000 nM; read-out: Percent Control
# [30] = molecular target: panel of 468 diverse kinases (Homo sapiens, UniProt O14920); conditions: IKK-beta; 1000 nM; read-out: Percent Control
# [31] = molecular target: panel of 468 diverse kinases (Homo sapiens, UniProt P36507); conditions: MEK2; 1000 nM; read-out: Percent Control
structure (smiles),measurement,setting,value
COc1cc2nc(NC3CC3)nc(NC3CCN(C(C)C)CC3)c2cc1OC [Formula IV],remaining activity at 1 µM,[1],100%
same,remaining activity at 1 µM,[2],95%
same,remaining activity at 1 µM,[3],96%
same,remaining activity at 1 µM,[4],100%
same,remaining activity at 1 µM,[5],84%
same,remaining activity at 1 µM,[6],56%
same,remaining activity at 1 µM,[7],45%
same,remaining activity at 1 µM,[8],100%
same,remaining activity at 1 µM,[9],98%
same,remaining activity at 1 µM,[10],52%
same,remaining activity at 1 µM,[11],90%
same,remaining activity at 1 µM,[12],99%
same,remaining activity at 1 µM,[13],73%
same,remaining activity at 1 µM,[14],55%
same,remaining activity at 1 µM,[15],100%
same,remaining activity at 1 µM,[16],53%
same,remaining activity at 1 µM,[17],74%
same,remaining activity at 1 µM,[18],63%
same,remaining activity at 1 µM,[19],55%
same,remaining activity at 1 µM,[20]; ABL1 (F317L)-nonpho sphorylated,82%
same,remaining activity at 1 µM,[20]; ABL1(F317L)-phosphorylated,40%
same,remaining activity at 1 µM,[21],93%
same,remaining activity at 1 µM,[22],67%
same,remaining activity at 1 µM,[23],99%
same,remaining activity at 1 µM,[24],90%
same,remaining activity at 1 µM,[25],100%
same,remaining activity at 1 µM,[26],100%
same,remaining activity at 1 µM,[27],76%
same,remaining activity at 1 µM,[28],92%
same,remaining activity at 1 µM,[29],44%
same,remaining activity at 1 µM,[30],66%
same,remaining activity at 1 µM,[31],58%

# Source: patent US11542240B2, “STK19 inhibitors for treatment of cancer” (TRUSTEES OF BOSTON UNIVERSITY, priority 2018, dated 2023)
